Measured values as given in patent publication US20230201290A1, “TGF-BETA INHIBITION, AGENTS AND COMPOSITION THEREFOR” (GMP BIOTECHNOLOGY LIMITED, priority 2020, published 2023).
Values after ≈ are worked out from the molar mass of the structure shown. Values joined by “and” are separate entries in the source; they are usually repeats but may differ in a detail not shown here. Identical values can stand only once. Like-named read-outs stand apart in the source and are kept apart here.

Assays:
[1] = system: SARS-COV-2 USA_WA1/2020; details: for SI=CC50/EC50: SARS-CoV-2; for SI (CC50/EC50): SARS-CoV-2, Vero 76 cells; for EC50: 50% effective antiviral concentration: SARS-CoV-2 USA_WA1/2020, Vero 76, CPE neutral red, day 5; for Antiviral activity against SARS-CoV-2 (words): Vero 76
[2] = system: Vero 76 cells; details: for CC50: 50% cytotoxic concentration of compound without virus added: run alongside SARS-CoV-2 test
[3] = system: vivax malaria; details: cited from earlier work; for relapse rate within a month: 1975 comparison with chloroquine
[4] = system: falciparum malaria; details: cited from earlier work; for recrudescence in a month: 1975, 3-day regimens
[5] = system: SARS-CoV (Urbani strain)
[6] = system: SARS-CoV-2; details: Vero E6, MOI 0.01, 24 h post-infection; cited from earlier work
[7] = system: SARS-COV-2 USA_WA1/2020; test: microbe, parasite or virus in culture
[8] = cited from earlier work
[9] = system: SARS-CoV-2; details: VeroE6, 2-day incubation; cited from earlier work
[10] = system: cerebral malaria; details: cited from earlier work
[11] = 500 mg orally, Child B cirrhosis; cited from earlier work
[12] = system: TGF-β mRNA; details: 100 mg/kg ip daily for 20 days; P<0.01; cited from earlier work
[13] = in vitro; details: African green monkey
[14] = system: C8161 human melanoma; test: Orthotopic C8161 human melanoma model
[15] = system: SARS-CoV-2 virus; details: higher values with higher multiplicity of infection; read-out: EC50 values for SARS-CoV-2 virus in the literature; cited from earlier work
[16] = system: Vero E6 cells; details: remdesivir, literature; cited from earlier work
[17] = healthy subjects; cited from earlier work
[18] = 527 cases of falciparum malaria

GTTCGTTTAGAGAACAGATC (phosphorothioate backbone, 5-methyl C, further chemistry not given here) [TRS1 (53-72)]
SI=CC50/EC50 [1]: 95 | SI (CC50/EC50) [1]: 95 | EC50: 50% effective antiviral concentration [1]: 7.6 µg/mL | Antiviral activity against SARS-CoV-2 (words) [1]: High antiviral activity | Cytotoxicity ([2]; SARS-CoV-2 test): Cytotoxicity was observed | CC50: 50% cytotoxic concentration of compound without virus added [2]: 720 µg/mL

CTCCCTCATGGTGGCAGTTGA (chemistry not given here) [RSV, reference compound]
SI=CC50/EC50 [1]: >1.6 | SI (CC50/EC50) [1]: >1.6 | EC50: 50% effective antiviral concentration [1]: 620.0 µg/mL and 620 µg/mL | Antiviral activity against SARS-CoV-2 (words) [1]: did not demonstrate any suppression | CC50 [2]: > 1000 µg/mL

AGCCCTGTATACGAC [FS (13,458-13,472)] (antisense AGCCCTGTAGACGAC; phosphorothioate backbone, further chemistry not given here)
SI=CC50/EC50 [1]: 53 | SI (CC50/EC50) [1]: 53 | EC50: 50% effective antiviral concentration [1]: 5.2 µg/mL | Antiviral activity against SARS-CoV-2 (words) [1]: High antiviral activity | Cytotoxicity ([2]; SARS-CoV-2 test): Cytotoxicity was observed | CC50: 50% cytotoxic concentration of compound without virus added [2]: 430 µg/mL

CCN(CC)CCCC(C)Nc1ccnc2cc(Cl)ccc12 (stereo not drawn) [chloroquine]
relapse rate within a month [3]: no cases of relapse | recrudescence in a month [4]: 50%

TAAAGTTCGTTTAGAGAACAG (phosphorothioate backbone, further chemistry not given here) [TRS2 (56-76)]
SI=CC50/EC50 [1]: >14 | SI (CC50/EC50) [1]: >14 | EC50: 50% effective antiviral concentration [1]: 73 µg/mL | CC50 [2]: > 1000 µg/mL | Cytotoxicity [2]: Cytotoxicity was observed | CC50: 50% cytotoxic concentration of compound without virus added [2]: >1000 µg/mL | SI (CC50/EC50) [5]: >2.9

C[C@@H]1CC[C@H]2[C@@H](C)C(=O)O[C@@H]3O[C@@]4(C)CC[C@@H]1[C@]32OO4 [Artemisinin]
anti-SARS-CoV-2 activity by RTPCR method [6]: confirmed | EC50 ([7]; Severe acute respiratory syndrome coronavirus 2, Vero 76, 120 h, read-out: EC50 (50% effective antiviral concentration)): 0.45 µg/mL | EC50 ([7]; Severe acute respiratory syndrome coronavirus 2, Vero 76, 120 h, read-out: EC50: 50% effective antiviral concentration): 0.45 µg/mL | EC50 ([7]; Severe acute respiratory syndrome coronavirus 2, Vero 76, read-out: EC50 (value in brackets)): 1590 nM | AUC ([8]; 500 mg after food): 2,092±1,441 ng×ml^−1×h | time at which half of the terminal value was reached ([8]; 500 mg after food): 0.97 ± 0.68 h | maximum concentration of drug in serum (Cmax) ([8]; 500 mg capsules after food, six healthy subjects): 443 ± 224 ng/mL | oral plasma clearance ([8]; 1×250, 2×250, 4×250 mg capsules, eight healthy subjects): about 400 L h-1 | mean oral clearance ([8]; population PK, 15 subjects, 160 and 500 mg): 417 L/h | terminal elimination half-life ([8]; population PK, 15 subjects): 1.93 h | volume of distribution ([8]; population PK, 15 subjects): 1210 L | mean induction time of own metabolism ([8]; semiphysiological autoinduction model, saliva): 1.9 h | Antiviral activity against SARS-CoV-2 (words) [1]: suppressed SARS-CoV-2 replication | Antiviral activity against SARS-CoV-2 (words) ([1]; listed as artemisinin): High antiviral activity | anti-SARS-CoV-2 activity by immunostaining for spike protein [9]: confirmed | mortality rate ([10]; 141 patients): 7.1% | patients cured ([10]; 141 patients): 92.9% | average defervescence time ([10]; across all sites): 34.1 to 56.7 h | average parasite clearance time ([10]; across all sites): 33.3 to 64.5 h | average time taken to regain consciousness ([10]; across all sites): 21.5 to 30.8 h | cure rate ([10]; nasogastric gavage, 36 patients): 91.7% | average asexual parasite clearance time ([3]; 1511 cases of vivax malaria): 30 to 40 h | average defervescence time ([3]; 1511 cases of vivax malaria): 20 to 30 h | parasite clearance time ([3]; 1975: artemisinin tablets total 3 g, chloroquine total 1.5 g base): 39.6 ± 13.5 h | relapse rate within a month [3]: 21.4% | elimination half-life, log-linear regression [11]: 4 (±1.3) h | elimination half-life, non-linear regression, one-compartment model [11]: 2.4 ± 0.9 h | mean (±SD) area under the concentration time curve [11]: 2365 (±1761) h ng/ml | mean (±SD) clearance [11]: 382 (±303) L/h | TGF-β mRNA levels within the tumor [12]: significantly decreased | CC50 [13]: 61 µg/mL (≈ 216 µM) | cure of chloroquine-resistant (RI-RIII) cases ([4]; 143 cases, 3-day regimen oil, oil suspension or water suspension): all patients were cured | Fever clearance time [4, 18]: 30 to 40 h | asexual parasite clearance time [4, 18]: 30 to 50 h | average asexual parasite clearance time ([4]; 1975, 3-day regimens: artemisinin tablets 2.5 g, chloroquine 1.5 g base): 37 ± 17.8 h | recrudescence in a month [4]: All the cases | average parasite clearance time ([4]; group A: 500 mg daily for 5 days): 34 ± 14 h | average parasite clearance time ([4]; group B: 100/100/250/250/500 mg escalating): 50 ± 23 h | mean parasite clearance time ([4]; single 500 mg oral dose, 11 patients): 36 h | recrudescence rate within a month ([4]; tablets): 85%

GGTAGGTAAAAACCTAATAT [5TERM (1-20) MOE] (2'-MOE modified, pattern not given here)
SI=CC50/EC50 [1]: 120 | SI (CC50/EC50) [1]: 120 | EC50: 50% effective antiviral concentration [1]: 4.9 µg/mL | Antiviral activity against SARS-CoV-2 (words) [1]: High antiviral activity | Cytotoxicity [2]: Cytotoxicity was observed | Cytotoxicity ([2]; SARS-CoV-2 test): Cytotoxicity was observed | CC50: 50% cytotoxic concentration of compound without virus added [2]: 610 µg/mL | SI (CC50/EC50) [5]: >2.6

CGTTTAGAGAACAGATCTAC [TRS2-2 53-72 MOE] (2'-MOE modified, pattern not given here)
SI=CC50/EC50 [1]: >16 | SI (CC50/EC50) [1]: >16 | EC50: 50% effective antiviral concentration [1]: 62 µg/mL | CC50 [2]: > 1000 µg/mL | CC50: 50% cytotoxic concentration of compound without virus added [2]: >1000 µg/mL

GGTAGGTAAAAACCTAATAT [5TERM (1-20)] (phosphorothioate backbone, further chemistry not given here)
SI=CC50/EC50 [1]: >140 | SI (CC50/EC50) [1]: >140 | EC50: 50% effective antiviral concentration [1]: 7.1 µg/mL | Antiviral activity against SARS-CoV-2 (words) [1]: High antiviral activity | CC50 [2]: > 1000 µg/mL | CC50: 50% cytotoxic concentration of compound without virus added [2]: >1000 µg/mL

CATTGTAGATGTCAAAAGCC (phosphorothioate backbone, further chemistry not given here) [FS-2a (13539-13558)]
SI=CC50/EC50 [1]: >59 | SI (CC50/EC50) [1]: >59 | EC50: 50% effective antiviral concentration [1]: 17 µg/mL | Antiviral activity against SARS-CoV-2 (words) [1]: High antiviral activity | CC50 [2]: > 1000 µg/mL | CC50: 50% cytotoxic concentration of compound without virus added [2]: >1000 µg/mL

AGCCCTGTATACGAC [FS (13.458-13.274)MOE] (2'-MOE modified, pattern not given here)
SI=CC50/EC50 [1]: >40 | EC50: 50% effective antiviral concentration [1]: 25 µg/mL | CC50: 50% cytotoxic concentration of compound without virus added [2]: >1000 µg/mL

CN(C)/N=N/c1[nH]cnc1C(N)=O [DTIC, dacarbazine]
Tumor growth suppressed versus control group 1 on day 42 ([14]; group 3: 1 mg/kg ip four times/week): −2% | Tumor growth suppressed versus control group 1 on day 42 ([14]; group 4: 10 mg/kg ip four times/week): 78%

CCN(CCO)CCCC(C)Nc1ccnc2cc(Cl)ccc12 (stereo not drawn) [hydroxychloroquine]
EC50 [15]: 720 to 17300 nM

CCC(CC)COC(=O)[C@H](C)N[P@](=O)(OC[C@H]1O[C@@](C#N)(c2ccc3c(N)ncnn23)[C@H](O)[C@@H]1O)Oc1ccccc1 [Remdesivir]
CC50 [16]: > 200000 nM

CGTTTAGAGAACAGATCTAC [TRS2-2 53-72] (phosphorothioate backbone, further chemistry not given here)
SI=CC50/EC50 [1]: >530 | SI (CC50/EC50) [1]: >530 | EC50: 50% effective antiviral concentration [1]: 1.9 µg/mL | Antiviral activity against SARS-CoV-2 (words) [1]: High antiviral activity | CC50 [2]: > 1000 µg/mL | CC50: 50% cytotoxic concentration of compound without virus added [2]: >1000 µg/mL

Clc1ccc2c(N3CCN(CCCN4CCN(c5ccnc6cc(Cl)ccc56)CC4)CC3)ccnc2c1 [piperaquine]
slope of plasma concentration vs placebo-adjusted ΔQTcF [17]: 0.047 ms per ng ml-1
